Experimental data as given in US20110300628A1, “ENHANCEMENT OF EPIDERMAL CELL GROWTH BY NON-PROTEIN GROWTH FACTORS” (priority 2010, published 2011).

Key:
[1] = tested on: normal human keratinocytes (NHK cells); experiment: Clonal growth assay of normal human keratinocytes in serum-free chemically defined medium; format: cell-based; settings: for effect on clonal growth in high (3×) levels of the six key amino acids: 3× amino acids; for clonal growth of NHK relative to control medium supplemented with IGF-1 and EGF: additive in combination with IGF-1 (5 ng/mL), no EGF, 10 days after plating, diBcAMP 0.1 mM, LiCl 10 mM, PGE1 10 μg/ml; for replacement of protein growth factor requirement for clonal growth of NHK: serum-free medium, 10 days clonal growth; for clonal growth of NHK relative to culture medium supplemented with EGF plus IGF-1: 10 days
Experimental: The methods for isolating and culturing primary and secondary-passaged normal human neonatal normal human keratinocyte (NHK cells) were those previously employed (Wille et al., 1984). For the purpose of the present invention, secondary serially-passaged cultures were plated at 500 cells/cm in a novel serum-free basal media previously disclosed (Wille J. J., U.S. Pat. No. 5,586,307). This basal nutrient defined culture medium was supplemented either singly with the following additives: diBCAMP (1×10−4 M), LiCl (10 mM), and PGE1 ([…]). All dishes were fixed ten days later, stained with crystal violet stain (0.2%) and photographed.

keratinocyte cells = settings: low calcium (0.03 mM) or calcium-free, serum-free medium; cited from earlier work

In the case of `[Cl-].[Li+]` [Li+ ions, Lithium chloride], the “multiplication of human keratinocyte cells” value ([1]; 10 mM, serum-free chemically defined medium) is reported as “stimulate”, the “effect on clonal growth in low (1×) levels of the six key amino acids” value ([1]; 1× amino acids, with protein growth factors) is reported as “growth-enhancing effects” and the “effect on clonal growth in high (3×) levels of the six key amino acids” value ([1]; with protein growth factors, listed as lithium ions) is reported as “lost”. For the same molecule, the “effect on clonal growth in high (3×) levels of the six key amino acids” value ([1]; with protein growth factors, listed as lithium ions (Li+)) was “no enhancement”, the “clonal growth of NHK relative to control medium supplemented with IGF-1 and EGF” value [1] was “significantly enhances” and the “replacement of protein growth factor requirement for clonal growth of NHK” value (from here on “replacement”) [1] was “can replace EGF”. For the same molecule, the “replacement” value ([1]; listed as Lithium ions) was “completely replaced EGF”.
With `CCCCC[C@H](O)/C=C/[C@H]1[C@H](O)CC(=O)[C@@H]1CCCCCCC(=O)O` [PGE1, Prostaglandin E1] the “clonal growth of NHK relative to control medium supplemented with IGF-1 and EGF” value [1] was “significantly enhanced”, the “clonal growth of NHK relative to culture medium supplemented with EGF plus IGF-1” value ([1]; in combination with both EGF and IGF-1) was “significantly enhanced” and the “clonal growth in elevated (3×) levels of the six key amino acids relative to lower (1×) levels” value ([1]; in the presence of insulin (5 μg/mL) and EGF (10 ng/mL)) was “significant enhancement”. For the same molecule, the “replacement” value [1] was “can replace both EGF and IGF-1” and the “clonal growth of NHK relative to culture medium supplemented with EGF plus IGF-1” value ([1]; single addition to medium unsupplemented by any protein growth factors) was “significantly enhanced”.
For `[Sr+2]` [Strontium ions (Sr 2+)], the “concentration of maximal enhancement of cell viability and increase in cell number” value (keratinocyte cells) is given as 1.0 to 2.0 mM.
For `CCCC(=O)Nc1ncnc2c1ncn2[C@@H]1O[C@@H]2COP(=O)(O)O[C@H]2[C@H]1OC(=O)CCC` [diBcAMP, dibutryl-3′-5′-adenosine monophosphate], the “clonal growth of NHK relative to control medium supplemented with IGF-1 and EGF” value [1] was “significantly enhanced”, the “clonal growth of NHK relative to control medium supplemented with IGF-1 and EGF” value ([1]; listed as diBCAMP) was “does enhance” and the “replacement” value [1] was “can replace EGF”.
